Test results taken from patent US11644474B2, “Use of macimorelin in assessing growth hormone deficiency in children” (Æterna Zentaris GmbH, priority 2020, dated 2023).
“And” between values parts separate entries of the source, which are not always exact repeats. Identical values can stand only once. “Also recorded” adds a separate entry of the source. Like-named read-outs stand apart in the source and are kept apart here.

Key:
Format in all cases: in vivo, human (paediatric subjects with suspected GHD)
[1] = Macimorelin plasma pharmacokinetics after single oral dose (Study AEZS-130-P01); settings: for half-life: read-out: mean elimination half-life (converted); for Cmax: n=8 children; for AUC(0-t): read-out: mean AUC0-6 of macimorelin
Procedure: (§1) This was an open-label, group comparison, dose escalation trial to investigate the safety, tolerability, pharmacokinetics and pharmacodynamics of single-dose 0.25, 0.5, and 1 mg/kg oral macimorelin acetate in paediatric subjects with suspected GHD. The macimorelin GHST was administered between two standard GHST, conducted as per local clinical practice, with a recovery period of 7-28 days between tests. For the purposes of obtaining a detailed macimorelin PK profile in children, blood samples were collected pre-dose (±15 min) and 15, 30, 45, 60, 90, 120, and 360 minutes after macimorelin acetate intake.
(§2) The main features of Study P01 are summarized as follows: • Sequential cohorts of trial participants received macimorelin at ascending single oral doses: 0.25 mg/kg body weight in Cohort 1 (C1), 0.5 mg/kg body weight in Cohort 2 (C2), and 1 mg/kg body weight in Cohort 3 (C3). • For determination of macimorelin PK/PD: blood sampling at pre-dose, then 15, 30, 45, 60, 90, 120, and 360 minutes after the administration of macimorelin. • Two standard GHSTs (sGHSTs) had to be performed in a patient according to local practice. The related sGHST agents were considered as ‘background’ and not as IMPs. (Accepted test agents: insulin (insulin tolerance test or ITT), arginine, arginine/growth hormone releasing hormone (GHRH), clonidine, glucagon, L-dopa). Results
Macimorelin plasma concentrations: the analysis of plasma samples for macimorelin concentration was carried out at a central laboratory, Prolytic GmbH, Germany, using a validated liquid chromatography-mass spectrometry (LCMS/MS) method with a detection limit of 0.2 ng/mL (Franz, 2005).
Preliminary pharmacokinetics (PK) were determined by: time of maximum measured concentration (tmax) and maximum concentration (Cmax) of macimorelin plasma concentrations in the sampling period.

GH secretion = experiment: Macimorelin growth hormone stimulation test (GHST): serum GH after oral macimorelin (PD); settings: for Peak GH after Macimorelin GHST: individual patients, serum
Procedure: as §1, §2
GH serum concentration: the analysis of serum samples for GH concentration was carried out at a central laboratory by a validated immunochemiluminometric assay (IDS-iSYS Human Growth Hormone (hGH), Immunodiagnostic Systems Ltd [UK]) (Manolopoulou et al., 2012). This assay is standardized to the recombinant growth hormone calibration standard WHO 98/574, and complies with recommendations on assay standardization as outlined by Clemmons (Clemmons, 2011).
The analytical laboratory applied for GH was: Central Laboratory Synevo Łódź, Krakusa Str. 28, 93-515 Łódź. Poland. The lower limit of quantification was <0.05 ng/mL.

[2] = Safety and tolerability of single oral macimorelin (adverse events, questionnaires, safety laboratory, ECG); settings: all three dosing cohorts, 0.25-1 mg/kg single oral dose; for safety and tolerability: questionnaires, safety laboratory, ECG
Procedure: as §1

[3] = human, C1, 0.25 mg/kg single oral dose, plasma
[4] = human, C2, 0.5 mg/kg single oral dose, plasma
[5] = human, C3, 1 mg/kg single oral dose, plasma

In the case of `CC(C)(N)C(=O)N[C@H](Cc1c[nH]c2ccccc12)C(=O)N[C@H](Cc1c[nH]c2ccccc12)NC=O` [macimorelin], the “change of macimorelin AUC with dose” value ([1]; 0.25, 0.5, 1 mg/kg oral) is reported as “increased with dose; also recorded: dose-dependent increase; also recorded: increases with the macimorelin dose”, the “change of macimorelin Cmax with dose” value ([1]; 0.25, 0.5, 1 mg/kg oral) is reported as “dose-dependent increase; also recorded: dose-proportional increase” and the “change of macimorelin plasma concentrations with dose” value ([1]; 0.25, 0.5, 1 mg/kg oral, FIG. 1) is reported as “dose-dependent increase with high inter-individual variability”. For the same compound, the “time at which maximum plasma concentrations for macimorelin were mainly observed” value ([1]; all cohorts, 0.25-1 mg/kg oral) was 30 to 45 min, the half-life ([1]; human, plasma, C1, 0.25 mg/kg single oral dose) was 1.22 h and the half-life ([1]; human, plasma, C2, 0.5 mg/kg single oral dose) was 1.61 h. For the same compound, the half-life ([1]; human, plasma, C3, 1 mg/kg single oral dose) was 1.71 h, the Tmax ([1]; human, plasma, all three groups C1-C3, 0.25-1 mg/kg oral) was 0.5 to 0.75 h and the Cmax [1, 3] was 3.46 ng/mL. For the same compound, the AUC(0-t) [1, 3] was 6.69 ng·h/mL, the Cmax [1, 4] was 8.13 ng/mL and the AUC(0-t) [1, 4] was 18 ng·h/mL. For the same compound, the Cmax [1, 5] was 12.9 ng/mL, the AUC(0-t) [1, 5] was 30.9 ng·h/mL and the “time within which peak GH levels were observed” value (GH secretion; C1, 0.25 mg/kg oral) was 0.5 to 1 h. The “mean Tmax of peak GH” value (GH secretion; C1, 0.25 mg/kg oral (SD 11.3)) was 0.875 h, the “Peak GH after Macimorelin GHST” value (GH secretion; C1, 0.25 mg/kg oral) was 8.61 ng/mL and 0.51 ng/mL and 21.73 ng/mL and 5.22 ng/mL and 10.03 ng/mL and 14.07 ng/mL and 9.78 ng/mL and 8.38 ng/mL and the “time within which peak GH levels were observed” value (GH secretion; C2, 0.5 mg/kg oral) was 0.25 to 1 h. The “mean Tmax of peak GH” value (GH secretion; C2, 0.5 mg/kg oral (SD 13.9)) was 0.625 h, the “Peak GH after Macimorelin GHST” value (GH secretion; C2, 0.5 mg/kg oral) was 5.06 ng/mL and 20.73 ng/mL and 7.41 ng/mL and 10.43 ng/mL and 21.36 ng/mL and 16.41 ng/mL and 9.67 ng/mL and 27.42 ng/mL and the “time within which peak GH levels were observed” value (GH secretion; C3, 1 mg/kg oral) was 0.5 to 0.75 h. For the same compound, the “mean Tmax of peak GH” value (GH secretion; C3, 1 mg/kg oral (SD 8.0)) was 0.625 h, the “stimulation of GH secretion” value (GH secretion; C3, 1 mg/kg oral, 8 patients) was “stimulated evidently in all 8 patients; also recorded: evident stimulation of GH secretion in all 8 patients” and the “Peak GH after Macimorelin GHST” value (GH secretion; C3, 1 mg/kg oral) was 17.13 ng/mL and 14.46 ng/mL and 59.73 ng/mL and 49.16 ng/mL and 25.07 ng/mL and 14.63 ng/mL and 11.35 ng/mL and 44.73 ng/mL. The “mean Tmax of GH release” value (GH secretion; all cohorts C1-C3) was 0.5 to 1 h, the “time of maximum GH release after macimorelin administration” value (GH secretion; all cohorts C1-C3) was 0.25 to 2 h and the “time at which peak GH levels were mainly observed following macimorelin intake” value (GH secretion; all three cohorts) was 30 to 60 min. For the same compound, the “adverse events related to macimorelin” value ([2]; 24 children) was “none were considered related to the macimorelin test; also recorded: No adverse event was reported in relation to macimorelin”, the safety and tolerability [2] was “excellent safety and tolerability” and the safety and tolerability ([2]; listed as Macimorelin acetate) was “safe and well tolerated in all dosing cohorts”.
